According to patent US11279714B2, “Anti-infective compounds” (priority 2014, dated 2022):

Columns and labels:
Assay type in all cases: cell-based, Mycobacterium
Settings in all cases: REMA, 1 week + 1 day resazurin; relative to H37Rv
[1] = system: MDR-33 (clinical isolate of multidrug-resistance tuberculosis)
[2] = system: MDR-146 (clinical isolate of multidrug-resistance tuberculosis)
[3] = system: MDR-137 (clinical isolate of multidrug-resistance tuberculosis)

Structure (SMILES) | Antibacterial activity MDR-33 [1] | Antibacterial activity MDR-146 [2] | Antibacterial activity MDR-137 [3]
COCCN(C)c1nc2sc(C(=O)Nc3ccc4oc(C)nc4c3)cc2s1 [Compound 202] | +++ (+++ indicates <2 times of MIC50 on wild type strain (H37Rv)) | +++ (+++ indicates <2 times of MIC50 on wild type strain (H37Rv)) | +++ (+++ indicates <2 times of MIC50 on wild type strain (H37Rv))
COc1ccc(NC(=O)c2cc3sc(N4CCC(C(=O)N(C)C)CC4)nc3s2)cc1 [Compound 127] | +++ (+++ indicates <2 times of MIC50 on wild type strain (H37Rv)) | +++ (+++ indicates <2 times of MIC50 on wild type strain (H37Rv)) | +++ (+++ indicates <2 times of MIC50 on wild type strain (H37Rv))
Cc1nc2cc(NC(=O)c3cc4sc(N5CCOCC5)nc4s3)ccc2o1 [Compound 83] | +++ (+++ indicates <2 times of MIC50 on wild type strain (H37Rv)) | +++ (+++ indicates <2 times of MIC50 on wild type strain (H37Rv)) | +++ (+++ indicates <2 times of MIC50 on wild type strain (H37Rv))
Cc1nc2cc(NC(=O)c3cc4sc(N5CCC(CO)CC5)nc4s3)ccc2o1 [Compound 144] | +++ (+++ indicates <2 times of MIC50 on wild type strain (H37Rv)) | +++ (+++ indicates <2 times of MIC50 on wild type strain (H37Rv)) | +++ (+++ indicates <2 times of MIC50 on wild type strain (H37Rv))
